Molecular target: T1, human PAH with the R408W mutation (Homo sapiens, UniProt P00439, R408W)
T1 construct: expressed in transfected cells
T1 sequence (P00439 1-452 R408W): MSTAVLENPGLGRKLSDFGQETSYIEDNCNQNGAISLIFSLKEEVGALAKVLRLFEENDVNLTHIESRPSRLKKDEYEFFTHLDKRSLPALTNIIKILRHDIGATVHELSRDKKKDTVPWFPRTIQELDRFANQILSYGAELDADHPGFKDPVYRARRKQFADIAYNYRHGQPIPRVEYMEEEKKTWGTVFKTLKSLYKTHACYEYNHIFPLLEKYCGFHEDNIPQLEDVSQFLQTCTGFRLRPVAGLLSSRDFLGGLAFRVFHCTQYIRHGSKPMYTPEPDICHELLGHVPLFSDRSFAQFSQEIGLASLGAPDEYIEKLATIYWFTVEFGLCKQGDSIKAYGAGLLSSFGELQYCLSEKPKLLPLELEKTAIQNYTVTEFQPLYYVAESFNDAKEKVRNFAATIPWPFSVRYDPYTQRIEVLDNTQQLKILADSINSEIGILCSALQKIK
Experiment: Cell Based Phenylalanine Flux Assay;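 note: after compound treatment, cells received sepiapterin plus isotope-labelled Phenylalanine for 4 hours, then labelled Tyrosine in the medium was quantified, 10-point 2-fold dilution series run in duplicate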
Settings: A375 cells expressing R408W PAH; 24 hrs with compound, then 20 µM sepiapterin and 800 µM 13C9,15N-Phenylalanine for 4 hours; 13C-Tyrosine by LC-MS; average where tested multiple times; read-out: AC50

SMILES | AC50
Cc1cccc2cc(C3c4nc[nH]c4CCN3C(=O)c3nnc(C4CC(F)(F)C4)o3)nn12 (centres unmarked) [listing 1 of 2 here] | > 5 µM
Cn1ccc(-c2nnc(C(=O)N3CCc4[nH]cnc4C3c3cc4c(OC(F)F)cccn4n3)o2)n1 (centres unmarked) [listing 1 of 2 here] | > 5 µM
O=C(c1nnc(C2CC(F)(F)C2)o1)N1CCc2[nH]cnc2C1c1cc2cccc(Cl)n2n1 (centres unmarked) [listing 1 of 2 here] | > 5 µM
O=C(c1nnc(-c2cnn(C(F)(F)F)c2)o1)N1CCc2[nH]cnc2C1c1cc2cccc(F)n2n1 (centres unmarked) [listing 1 of 2 here] | > 5 µM
O=C(c1nnc(-c2ncccn2)o1)N1CCc2[nH]cnc2C1c1cc2cccc(C(F)(F)F)n2n1 (centres unmarked) [listing 1 of 2 here] | > 5 µM
COCc1ncc(C(=O)N2CCc3[nH]cnc3C2c2cc3ccccn3n2)s1 (centres unmarked) [listing 1 of 2 here] | > 5 µM
Cc1cccc2cc(C3c4nc[nH]c4CCN3c3nnc(C4CC4)o3)nn12 (centres unmarked) [listing 1 of 2 here] | > 5 µM
O=C(c1cnn2cc(N3CCOCC3)ccc12)N1CCc2[nH]cnc2C1c1cc2ccccn2n1 (centres unmarked) [listing 1 of 2 here] | > 5 µM
COc1ccc2c(C(=O)N3CCc4[nH]cnc4C3c3cc4c(OC)cccn4n3)cnn2c1 (centres unmarked) [listing 1 of 2 here] | > 5 µM
COCc1ccc2c(C(=O)N3CCc4[nH]cnc4C3c3cc4cccc(Cl)n4n3)cnn2c1 (centres unmarked) [listing 1 of 2 here] | > 5 µM
CN(C)Cc1ccc2c(C(=O)N3CCc4[nH]cnc4C3c3cc4cccc(C(F)F)n4n3)cnn2c1 (centres unmarked) [listing 1 of 2 here] | > 5 µM
Cn1cc(-c2ccc3c(C(=O)N4CCc5[nH]cnc5C4c4cc5ccccn5n4)cnn3c2)cn1 (centres unmarked) | 1 to 5 µM
Cn1cc(-c2nnc(N3CCc4[nH]cnc4C3c3cc4ccccn4n3)o2)cn1 (centres unmarked) | 1 to 5 µM
O=C(c1nnc(N2CC(F)C2)o1)N1CCc2[nH]cnc2C1c1cc2ccccn2n1 (centres unmarked) | 1 to 5 µM
O=C(c1nnc(C2CC(F)(F)C2)o1)N1CCc2[nH]cnc2C1c1cc2cccc(C(F)F)n2n1 (centres unmarked) | 1 to 5 µM
O=C(c1nnc(C2CC(F)(F)C2)o1)N1CCc2[nH]cnc2C1c1cc2cccc(C(F)(F)F)n2n1 (centres unmarked) | 1 to 5 µM
Cc1cccc2cc(C3c4nc[nH]c4CCN3C(=O)c3nnc(C4CC(F)(F)C4)o3)nn12 (centres unmarked) [listing 2 of 2 here] | 1 to 5 µM
Cn1ccc(-c2nnc(C(=O)N3CCc4[nH]cnc4C3c3cc4c(OC(F)F)cccn4n3)o2)n1 (centres unmarked) [listing 2 of 2 here] | 1 to 5 µM
Cn1cnc(-c2nnc(C(=O)N3CCc4[nH]cnc4C3c3cc4c(C(F)F)cccn4n3)o2)c1 (centres unmarked) | 1 to 5 µM
CC(C)c1nnc(C(=O)N2CCc3[nH]cnc3C2c2cc3c(C(F)F)cccn3n2)o1 (centres unmarked) | > 5 µM
Cn1cncc1-c1nnc(C(=O)N2CCc3[nH]cnc3C2c2cc3c(C(F)F)cccn3n2)o1 (centres unmarked) | 1 to 5 µM
FC(F)(F)c1cccn2nc(C3c4nc[nH]c4CCN3c3nc4ccccc4o3)cc12 (centres unmarked) | > 5 µM
Fc1cccn2nc(C3c4nc[nH]c4CCN3c3nc4ccccc4o3)cc12 (centres unmarked) | 1 to 5 µM
Cn1cncc1-c1nnc(C(=O)N2CCc3[nH]cnc3C2c2cc3cccc(C(F)F)n3n2)o1 (centres unmarked) | 1 to 5 µM
O=C(c1nnc(C2CC(F)(F)C2)o1)N1CCc2[nH]cnc2C1c1cc2cccc(Cl)n2n1 (centres unmarked) [listing 2 of 2 here] | 1 to 5 µM
Clc1cccc2cc(C3c4nc[nH]c4CCN3c3nnc(C4CC4)o3)nn12 (centres unmarked) | 1 to 5 µM

SMILES | AC50
O=C(c1nnc(-c2cnn(C(F)(F)F)c2)o1)N1CCc2[nH]cnc2C1c1cc2cccc(F)n2n1 (centres unmarked) [listing 2 of 2 here] | 1 to 5 µM
Cc1nnc(N2CCc3[nH]cnc3C2c2cc3cccc(F)n3n2)o1 (centres unmarked) | > 5 µM
Fc1cccc2cc(C3c4nc[nH]c4CCN3c3ncccn3)nn12 (centres unmarked) | 1 to 5 µM
Cc1cccc2cc(C3c4nc[nH]c4CCN3c3ncccn3)nn12 (centres unmarked) | 1 to 5 µM
CC(C)(O)c1nnc(C(=O)N2CCc3[nH]cnc3C2c2cc3c(C(F)F)cccn3n2)o1 (centres unmarked) | 1 to 5 µM
FC(F)c1cccn2nc(C3c4[nH]cnc4CCN3c3nnc(-c4ccccn4)o3)cc12 (centres unmarked) | 1 to 5 µM
COc1cccn2nc(C3c4nc[nH]c4CCN3C(=O)c3nnc(-c4cnccn4)o3)cc12 (centres unmarked) | 1 to 5 µM
COc1cccn2nc(C3c4nc[nH]c4CCN3C(=O)c3nnc(-c4ncccn4)o3)cc12 (centres unmarked) | > 5 µM
CC(C)(O)c1nnc(C(=O)N2CCc3[nH]cnc3C2c2cc3cccc(C(F)F)n3n2)o1 (centres unmarked) | 1 to 5 µM
O=C(c1nnc(-c2ncccn2)o1)N1CCc2[nH]cnc2C1c1cc2cccc(C(F)(F)F)n2n1 (centres unmarked) [listing 2 of 2 here] | 1 to 5 µM
Fc1cccc2cc(C3c4nc[nH]c4CCN3c3nnc(-c4ccccn4)o3)nn12 (centres unmarked) | 1 to 5 µM
O=C(c1nnc(-c2ncccn2)o1)N1CCc2[nH]cnc2C1c1cc2cccc(F)n2n1 (centres unmarked) | 1 to 5 µM
O=C(c1nnc(-c2ncccn2)o1)N1CCc2[nH]cnc2C1c1cc2ccccn2n1 (centres unmarked) | 1 to 5 µM
Cc1ccc2c(C(=O)N3CCc4[nH]cnc4C3c3cc4cccc(C(F)(F)F)n4n3)cnn2c1 (centres unmarked) | 1 to 5 µM
COCc1ncc(C(=O)N2CCc3[nH]cnc3C2c2cc3ccccn3n2)s1 (centres unmarked) [listing 2 of 2 here] | 1 to 5 µM
CC(C)c1nnc(C(=O)N2CCc3[nH]cnc3C2c2cc3cccc(C(F)(F)F)n3n2)o1 (centres unmarked) | 1 to 5 µM
FC(F)c1cccc2cc(C3c4nc[nH]c4CCN3c3nnc(C4CC4)o3)nn12 (centres unmarked) | 1 to 5 µM
Fc1cccc2cc(C3c4nc[nH]c4CCN3c3nnc(C4CC4)o3)nn12 (centres unmarked) | 1 to 5 µM
Cc1cccc2cc(C3c4nc[nH]c4CCN3c3nnc(C4CC4)o3)nn12 (centres unmarked) [listing 2 of 2 here] | 1 to 5 µM
Cc1nnc(N2CCc3[nH]cnc3C2c2cc3c(C(F)(F)F)cccn3n2)o1 (centres unmarked) | 1 to 5 µM
Cc1nnc(N2CCc3[nH]cnc3C2c2cc3ccccn3n2)o1 (centres unmarked) | 1 to 5 µM
COc1cccn2nc(C3c4nc[nH]c4CCN3C(=O)c3nnc(-c4ncccc4F)o3)cc12 (centres unmarked) | 1 to 5 µM
O=C(c1cnn2cc(N3CCOCC3)ccc12)N1CCc2[nH]cnc2C1c1cc2c(F)cccn2n1 (centres unmarked) | 1 to 5 µM
COc1cccn2nc(C3c4nc[nH]c4CCN3C(=O)c3cnn4cc(N5CCOCC5)ccc34)cc12 (centres unmarked) | > 5 µM
Cc1cccn2nc(C3c4nc[nH]c4CCN3C(=O)c3cnn4cc(N5CCOCC5)ccc34)cc12 (centres unmarked) | 1 to 5 µM
O=C(c1cnn2cc(N3CCOCC3)ccc12)N1CCc2[nH]cnc2C1c1cc2cccc(C(F)(F)F)n2n1 (centres unmarked) | 1 to 5 µM

SMILES | AC50
O=C(c1cnn2cc(N3CCOCC3)ccc12)N1CCc2[nH]cnc2C1c1cc2ccccn2n1 (centres unmarked) [listing 2 of 2 here] | 1 to 5 µM
COCc1ccc2c(C(=O)N3CCc4[nH]cnc4C3c3cc4c(C(F)F)cccn4n3)cnn2c1 (centres unmarked) | 1 to 5 µM
COc1ccc2c(C(=O)N3CCc4[nH]cnc4C3c3cc4c(OC)cccn4n3)cnn2c1 (centres unmarked) [listing 2 of 2 here] | 1 to 5 µM
Fc1cccn2nc(C3c4nc[nH]c4CCN3c3nnc(N4CCOCC4)o3)cc12 (centres unmarked) | 1 to 5 µM
Cc1cccn2nc(C3c4nc[nH]c4CCN3c3nnc(N4CCOCC4)o3)cc12 (centres unmarked) | 1 to 5 µM
COCc1ccc2c(C(=O)N3CCc4[nH]cnc4C3c3cc4cccc(C(F)F)n4n3)cnn2c1 (centres unmarked) | 1 to 5 µM
COCc1ccc2c(C(=O)N3CCc4[nH]cnc4C3c3cc4cccc(Cl)n4n3)cnn2c1 (centres unmarked) [listing 2 of 2 here] | 1 to 5 µM
O=C(c1nnc(N2CCC(F)CC2)o1)N1CCc2[nH]cnc2C1c1cc2ccccn2n1 (centres unmarked) | 1 to 5 µM
CN(C)C(=O)c1nnc(N2CCc3[nH]cnc3C2c2cc3c(C(F)F)cccn3n2)o1 (centres unmarked) | 1 to 5 µM
CN(C)C(=O)c1nnc(N2CCc3[nH]cnc3C2c2cc3c(F)cccn3n2)o1 (centres unmarked) | 1 to 5 µM
COCc1ccc2c(C(=O)N3CCc4[nH]cnc4C3c3cc4cccc(C)n4n3)cnn2c1 (centres unmarked) | 1 to 5 µM
COCc1ccc2c(C(=O)N3CCc4[nH]cnc4C3c3cc4cccc(C(F)(F)F)n4n3)cnn2c1 (centres unmarked) | 1 to 5 µM
O=C(c1cnn2cc(C3CC3)ccc12)N1CCc2[nH]cnc2C1c1cc2cccc(C(F)(F)F)n2n1 (centres unmarked) | 1 to 5 µM
COc1ccc2c(C(=O)N3CCc4[nH]cnc4C3c3cc4cccc(C(F)(F)F)n4n3)cnn2c1 (centres unmarked) | 1 to 5 µM
O=C(c1cnn2ccccc12)N1CCc2[nH]cnc2C1c1cc2cccc(C(F)(F)F)n2n1 (centres unmarked) | 1 to 5 µM
Cc1ccc2c(C(=O)N3CCc4[nH]cnc4C3c3cc4cccc(C(F)F)n4n3)cnn2c1 (centres unmarked) | 1 to 5 µM
O=C(c1nnc(NC2CC2)o1)N1CCc2[nH]cnc2C1c1cc2ccccn2n1 (centres unmarked) | 1 to 5 µM
Cc1cccn2nc(C3c4nc[nH]c4CCN3c3nnc(C(=O)N(C)C)o3)cc12 (centres unmarked) | 1 to 5 µM
CN(C)C(=O)c1nnc(N2CCc3[nH]cnc3C2c2cc3ccccn3n2)o1 (centres unmarked) | 1 to 5 µM
CN(C)Cc1ccc2c(C(=O)N3CCc4[nH]cnc4C3c3cc4c(C(F)F)cccn4n3)cnn2c1 (centres unmarked) | 1 to 5 µM
CN(C)Cc1ccc2c(C(=O)N3CCc4[nH]cnc4C3c3cc4c(F)cccn4n3)cnn2c1 (centres unmarked) | 1 to 5 µM
CN(C)Cc1ccc2c(C(=O)N3CCc4[nH]cnc4C3c3cc4cccc(C(F)F)n4n3)cnn2c1 (centres unmarked) [listing 2 of 2 here] | 1 to 5 µM
CN(C)Cc1ccc2c(C(=O)N3CCc4[nH]cnc4C3c3cc4cccc(Cl)n4n3)cnn2c1 (centres unmarked) | 1 to 5 µM
CN(C)Cc1ccc2c(C(=O)N3CCc4[nH]cnc4C3c3cc4cccc(F)n4n3)cnn2c1 (centres unmarked) | 1 to 5 µM
CN(C)Cc1ccc2c(C(=O)N3CCc4[nH]cnc4C3c3cc4cccc(C(F)(F)F)n4n3)cnn2c1 (centres unmarked) | 1 to 5 µM

— patent US20230365592A1 (Agios Pharmaceuticals, Inc., priority 2022, published 2023)
